Experimental data published in US6686445B1, “Synthetic antineoplastic agents derived from dolastatin 15 and methods of making same” (Arizona Board of Regents, acting for and on behalf of …, priority 1997, dated 2004).
Where a SMILES comes first, the peptide text is derived from it. [ ]: non-standard residue; d: D form. The star is where a group is joined. NH(4-Br-phenethyl) = Brc1ccc(CCN*)cc1; NMe2Val = CC(C)[C@@H](C(=O)*)N(C)C; X5 = O=[N+]([O-])c1ccc(CCN*)cc1; NMeV = CN[C@H](C(=O)O)C(C)C; Hiv = CC(C)[C@H](O)C(=O)O; X3 = c1ccc2sc(N*)nc2c1; X7 = Clc1cccc(CCN*)c1; X6 = Fc1ccc(CCN*)cc1; X8 = Clc1ccccc1CCN*

Experiments:
[1] = tested on: murine P388 lymphocytic leukemia cells; assay: growth inhibition of murine P388 lymphocytic leukemia cells; format: cell-based; details: dosage inhibiting tumor cell growth by 50%
Method: (§1) All compounds synthesized were first evaluated for in vitro antitumor activity against murine P388 lymphocytic leukemia cells and against murine L1210 leukemia cells and human CA46 Burkitt lymphoma cells using techniques described by Hamel & Lin (see: HAMEL, E., and LIN, C. M., […], Interaction of combretastatin, a new plant-derived antimitotic agent, with tubulin, Biochemical Pharmacology, 32, 3864). The compounds were also evaluated in the NCI's human tumor 60-cell-line in intro primary screen as described by Monks et al. (see: MONKS, A., SCUDIERO, et al., 1991, New colorimetric cytotoxicity assay for anticancer drug screening, Journal of the National Cancer Institute, 83, 757). Data analyses were performed using methods described by Boyd and Paull (see: BOYD, M. R., et al., 1995, Some practical considerations and applications of the National Cancer Institute in vitro anticancer drug discovery screen, Drug Development Research, 34, 91). A tubulin polymerization inhibition assay was performed according to a modified version of the procedure used previously and described by Muzaffar et al. (see: MUZAFFAR, A., et al., 1990, Antitubulin effects of derivatives of 3-demethylthiocolchicine, methylthio esters of natural colchicinoids, and thioketones derived from thiocolchicine, Comparison with colchicine, Journal of Medicinal Chemistry, 33, 567) to evaluate the effects of dolastatin 15 on cellular microtubule assembly. The new assay for these compounds employed a drug-tubulin preincubation (15 min.) with 10 μM tubulin in 0.8 M glutamate at 30° C., followed by addition of GTP and incubation (20 min.) at 30° C., with tubulin polymerization monitored turbidimetrically in GILFORD recording spectrophotometers.

[2] = tested on: NCI 60-cell-line in vitro human tumor panel; details: read-out: Mean Panel GI50; mean ± S.D. of triplicate tests (* duplicate)
Method: as §1

[3] = tested on: human CA46 Burkitt lymphoma cells; details: read-out: Human CA46 Burkitt Lymphoma IC50; cells counted after 20 hours
Method: as §1

[4] = tested on: murine L1210 leukemia cells; details: read-out: Mouse Leukemia L1210 IC50; cells counted after 24 hours of growth
Method: as §1

[5] = tested on: human CA46 Burkitt lymphoma cells; assay: mitotic arrest in drug-treated CA46 Burkitt cells; format: cell-based; details: 80 nM drug for 20 hours, control cells 3% mitotic
Method: To further verify the assumption that this entire series of compounds is acting intracellularly by interfering with tubulin function, the drug-treated Burkitt cells for mitotic arrest were analyzed.

[6] = tested on: Erwinia carotovora; assay: antimicrobial disk susceptibility test; format: cell-based; details: twofold dilutions
Method: Antimicrobial disk susceptibility tests were performed according to the method established by the National Committee for Clinical Laboratory Standards (NCCLS, 1997). MUELLER-HINTON agar was used for susceptibility testing of Staphylococcus aureus, Enterococcus faecalis, Micrococcus luteus, Escherichia coli, Enterobacter cloacae, Bacillus subtilis, Pseudomonas aeruginosa, and Erwinia carotovora, Gonococcal Typing agar for Neisseria gonorrhoeae, and YM agar for Candida albicans and Cryptococcus neoformans. Immediately prior to susceptibility assays, compounds were reconstituted in sterile DMSO and twofold dilutions applied to sterile 6-mm disks. Zones of inhibition were read at 16 hours for bacterial cultures (except for M. luteus) and 42 hours for fungal cultures and M. luteus. MIC determinations were performed in duplicate.

| Structure (SMILES) | Mouse Leukemia P388 ED50 [1] [ng/mL] | GI50 [2] [nM] | IC50 [3] [nM] | IC50 [4] [nM] | % Mitotic Cells [5] [%] | Minimum inhibitory concentration, Erwinia carotovora [6] |
| --- | --- | --- | --- | --- | --- | --- |
| COC(=O)[C@@H]1CCCN1C(=O)[C@@H](OC(=O)[C@@H]1CCCN1C(=O)[C@@H]1CCCN1C(=O)[C@H](C(C)C)N(C)C(=O)[C@@H](NC(=O)[C@H](C(C)C)N(C)C)C(C)C)C(C)C [Compound 12o] (NMe2Val-V[NMeV]PP[Hiv]P-OMe) | 3.1 | 4.48 ± 0.44 | 2 | 4 | 42 |  |
| COC(=O)[C@H](CCSC)NC(=O)[C@@H](OC(=O)[C@@H]1CCCN1C(=O)[C@@H]1CCCN1C(=O)[C@H](C(C)C)N(C)C(=O)[C@@H](NC(=O)[C@H](C(C)C)N(C)C)C(C)C)C(C)C [Compound 12n] (NMe2Val-V[NMeV]PP[Hiv]M-OMe) | 0.55 | 2.93 ± 0.93 | 3 | 3 | 44 |  |
| CC(C)[C@H](NC(=O)[C@H](C(C)C)N(C)C)C(=O)N(C)[C@H](C(=O)N1CCC[C@H]1C(=O)N1CCC[C@H]1C(=O)O[C@H](C(=O)Nc1nc2ccccc2s1)C(C)C)C(C)C [Compound 12q] (NMe2Val-V[NMeV]PP[Hiv]-X3) | 0.45 | 2.54 | 2 | 3 | 36 | 50-100 μg/disk |
| CC(C)[C@H](NC(=O)[C@H](C(C)C)N(C)C)C(=O)N(C)[C@H](C(=O)N1CCC[C@H]1C(=O)N1CCC[C@H]1C(=O)O[C@H](C(=O)NCCc1ccc(F)cc1)C(C)C)C(C)C [Compound 12d] (NMe2Val-V[NMeV]PP[Hiv]-X6) | 0.55 | 0.89 ± 0.29 | 0.8 | 4 | 46 |  |
| COC(=O)[C@H](Cc1ccccc1)NC(=O)[C@@H](OC(=O)[C@@H]1CCCN1C(=O)[C@@H]1CCCN1C(=O)[C@H](C(C)C)N(C)C(=O)[C@@H](NC(=O)[C@H](C(C)C)N(C)C)C(C)C)C(C)C [Compound 12m] (NMe2Val-V[NMeV]PP[Hiv]F-OMe) | 0.54 | 3.76 ± 1.05 | 1 | 3 | 40 | 50-100 μg/disk |
| CC(C)[C@H](NC(=O)[C@H](C(C)C)N(C)C)C(=O)N(C)[C@H](C(=O)N1CCC[C@H]1C(=O)N1CCC[C@H]1C(=O)O[C@H](C(=O)NCCc1ccc([N+](=O)[O-])cc1)C(C)C)C(C)C [Compound 12i] (NMe2Val-V[NMeV]PP[Hiv]-X5) | 0.60 | 0.94 ± 0.41 | 3 | 4 | 36 |  |
| CC(C)[C@H](NC(=O)[C@H](C(C)C)N(C)C)C(=O)N(C)[C@H](C(=O)N1CCC[C@H]1C(=O)N1CCC[C@H]1C(=O)O[C@H](C(=O)NCCc1ccccc1Cl)C(C)C)C(C)C [Compound 12g] (NMe2Val-V[NMeV]PP[Hiv]-X8) | 0.33 | 0.81 ± 0.31 | 2 | 4 | 26 |  |
| CC(C)[C@H](NC(=O)[C@H](C(C)C)N(C)C)C(=O)N(C)[C@H](C(=O)N1CCC[C@H]1C(=O)N1CCC[C@H]1C(=O)O[C@H](C(=O)NCCc1cccc(Cl)c1)C(C)C)C(C)C [Compound 12f] (NMe2Val-V[NMeV]PP[Hiv]-X7) | 0.37 | 0.83 ± 0.41 | 2 | 4 | 38 |  |
| CC(C)[C@H](NC(=O)[C@H](C(C)C)N(C)C)C(=O)N(C)[C@H](C(=O)N1CCC[C@H]1C(=O)N1CCC[C@H]1C(=O)O[C@H](C(=O)NCCc1ccc(Br)cc1)C(C)C)C(C)C [Compound 12h] (NMe2Val-V[NMeV]PP[Hiv]-{NH(4-Br-phenethyl)}) | 0.36 | 0.81 ± 0.15 | 2 | 2 | 48 |  |
